Experimental data as given in paper PMC5362409, “Antivascular and antitumor properties of the tubulin-binding chalcone TUB091” (Oncotarget, 2016).

Target: T1, αβ-tubulin (β-tubulin, colchicine site) (Bos taurus, UniProt P81947+Q6B856)
T1 construct: gene TUBB2B; calf brain tubulin; with α-tubulin
Assay: fluorescence competition: displacement of TUB091 fluorescence by TUB092, giving Ka ([…] GTP)
Format: binding
Conditions: read-out: fluorescence competition: displacement of TUB091 fluorescence by TUB092, giving

COc1ccc(/C=C(\C)C(=O)c2cc(OC)c3c(c2)OCO3)cc1N [compound 11, (E)-3-(3’’-amino-4’’-methoxyphenyl)-1-(5’-methoxy-3’,4’-methylendioxyphenyl)-2-methylprop-2-en-1-one]
Kd: 90.9 nM
